Test results taken from patent US12173018B2, “Penicillin-binding protein inhibitors” (priority 2018, dated 2024).
Read-outs that look alike come from different tables or passages of the source.

Legend:
A. baumannii ATCC 19606 = experiment: Broth microdilution MIC, A. baumannii ATCC 19606; type: cell-based; conditions: Acinetobacter baumannii
Method: (§1) To determine the ability of test compounds to potentiate the inhibition of the growth of bacterial strains, classic cell based broth microdilution minimum inhibitory concentration (MIC) assays were employed. MIC assays are performed according to CLSI methods except where otherwise noted (CLSI, 2011 and CLSI, 2009). The reference type strain E. coli ATCC 25922, the wild-type parent strain E. coli AG100, the hyper-permeable E. coli 901C and E. coli D22 and the E. coli AG100A strain lacking the acrAB efflux pump encoding genes were used to determine the ability of the PBP inhibitors to penetrate the outer membrane of gram-negative bacteria and inhibit bacterial growth. […] The P. aeruginosa PAO1, P. aeruginosa ATCC 27853 and A. baumannii ATCC 19606, along with the hyper-permeable P. aeruginosa ATCC 35151 and an engineered efflux pump-compromised strain of P. aeruginosa (ΔmexAB-oprM) were used to determine the ability of PBP inhibitors to penetrate the outer membrane of P. aeruginosa and A. baumannii and assess antibacterial activity against these important gram-negative organisms.
(§2) Briefly, cryo-preserved bacterial cultures of challenge strains are streaked for isolation on appropriate agar medium, in this case Mueller Hinton II agar. Following incubation to allow growth of the colonies, plates are sealed with parafilm and stored refrigerated for up to two weeks. For preparation of assay inoculum and to ensure low variability, at least 5 colonies are picked from the agar plates with an inoculating loop and aseptically transferred to a culture tube containing 3 mL of Mueller-Hinton Broth (supplemented with divalent cations to required levels based on Manufacturers' certification). The broth culture is grown for 3-5 hours at 37° C. with shaking at 200 rpm. Meanwhile, 2-fold serial dilutions of test compounds are conducted in a 96 well plate with a final volume of 75 μL per well at 2-fold the final desired concentration. After the dilution plates are set up the growing cultures are then diluted in a cuvette containing MH II broth and the optical density is measured at 600 nm. The Inoculum is diluted such that 75 μL of this culture in Mueller-Hinton Broth results in a starting bacterial concentration of 5×10^5 CFU/mL when added to the dilution plates. The plates are incubated for 16-20 hours at 37° C. The MIC values are read visually as the lowest concentration well with no bacterial growth.

K. pneumoniae 848844 = experiment: microbe, parasite or virus in culture; type: cell-based, Klebsiella pneumoniae; conditions: Klebsiella pneumoniae; K. pneumoniae 848844 producing SHV-11 and KPC-2; read-out: MIC K. pneumoniae 848844
How it was run: (§3)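 Strains are tested by standard CLSI broth microdilution. Log-phase cells, diluted by OD600 to 5×10^5 CFU/mL, meet 2-fold compound series and incubate 16-20 hours at 37° C before the lowest growth-free concentration is recorded.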

E. coli ATCC 25922 = experiment: Broth microdilution MIC, E. coli ATCC 25922; type: cell-based; conditions: Escherichia coli
How it was run: as §3

P. aeruginosa PAO1 = experiment: Broth microdilution MIC, P. aeruginosa PAO1; type: cell-based; conditions: Pseudomonas aeruginosa
Method: as §1, §2

K. pneumoniae SI-117 = experiment: microbe, parasite or virus in culture; type: cell-based; conditions: Klebsiella pneumoniae, SI117, read-out: MIC K. pneumoniae SI-117
How it was run: as §3

E. coli 901C = experiment: microbe, parasite or virus in culture; type: cell-based; conditions: Escherichia coli; hyper-permeable E. coli 901C, broth microdilution; read-out: MIC E. coli 901C
How it was run: as §3

P. aeruginosa ATCC 35151 = experiment: microbe, parasite or virus in culture; type: cell-based; conditions: Pseudomonas aeruginosa, ATCC35151; hyper-permeable P. aeruginosa ATCC 35151; read-out: MIC P. aeruginosa ATCC 35151
How it was run: as §3

K. pneumoniae UMM = experiment: microbe, parasite or virus in culture; type: cell-based; conditions: Klebsiella pneumoniae; K. pneumoniae UMM producing SHV-5 and KPC-2; read-out: MIC K. pneumoniae UMM
How it was run: as §3

E. coli AG100A = experiment: microbe, parasite or virus in culture; type: cell-based; conditions: Escherichia coli, read-out: MIC E. coli AG100A
How it was run: as §3

[1] = system: P. aeruginosa (ΔmexAB-oprM); experiment: microbe, parasite or virus in culture; type: cell-based; conditions: Pseudomonas aeruginosa, read-out: MIC P. aeruginosa ΔmexAB-OprM
How it was run: as §3

E. coli D22 = experiment: microbe, parasite or virus in culture; type: cell-based; conditions: Escherichia coli; hyper-permeable E. coli D22, broth microdilution; read-out: MIC E. coli D22
How it was run: as §3

E. coli AG100 = experiment: Broth microdilution MIC, E. coli AG100 (wild-type parent); type: cell-based; conditions: Escherichia coli; wild-type parent E. coli AG100, broth microdilution; read-out: MIC E. coli AG100
How it was run: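 Starting inoculum of 5×10^5 CFU/mL, from colonies grown 3-5 h in Mueller-Hinton broth with divalent cations, added to two-fold compound dilution series.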

E. coli PBP3 = E. coli PBP3 (Escherichia coli (strain K12), UniProt P0AD68); experiment: E. coli PBP3 Bocillin-FL fluorescence polarization competition binding assay
How it was run: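 Competition against 0.1 μM Bocillin-FL for binding to 1.5 μM purified protein, read by fluorescence polarization for 60 min. Compounds tested from 0 to 1000 μM; EC50 taken as the concentration reducing probe binding.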

[2] = ATCC19606, A. baumannii ATCC 19606, broth microdilution, read-out: MIC A. baumannii ATCC 19606
[3] = ATCC25922, E. coli ATCC 25922, broth microdilution, read-out: MIC E. coli 25922
[4] = P. aeruginosa PAO1, broth microdilution, read-out: MIC P. aeruginosa PAO1
[5] = fluorescence polarization competition binding with Bocillin-FL, read-out: E. coli K12 PBP3 Potency

E. coli PBP3, sequence (P0AD68 whole entry): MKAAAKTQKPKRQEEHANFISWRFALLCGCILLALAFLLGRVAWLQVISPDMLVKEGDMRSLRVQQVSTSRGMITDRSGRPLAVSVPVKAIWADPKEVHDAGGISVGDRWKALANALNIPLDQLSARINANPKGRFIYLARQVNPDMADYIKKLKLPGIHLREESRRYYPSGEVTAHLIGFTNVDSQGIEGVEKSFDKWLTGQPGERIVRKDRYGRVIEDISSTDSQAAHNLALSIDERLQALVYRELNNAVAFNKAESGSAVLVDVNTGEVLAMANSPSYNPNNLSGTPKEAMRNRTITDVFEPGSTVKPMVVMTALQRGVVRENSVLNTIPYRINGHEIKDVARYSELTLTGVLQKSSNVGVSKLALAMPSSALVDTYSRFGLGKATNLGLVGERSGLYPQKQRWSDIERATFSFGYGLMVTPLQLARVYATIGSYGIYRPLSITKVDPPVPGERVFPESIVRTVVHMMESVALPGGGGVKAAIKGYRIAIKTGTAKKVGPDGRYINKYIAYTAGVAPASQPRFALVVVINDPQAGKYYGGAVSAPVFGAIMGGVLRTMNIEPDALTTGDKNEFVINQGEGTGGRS

| SMILES | MIC (A. baumannii ATCC 19606; [2]) | MIC (K. pneumoniae 848844) | MIC (E. coli ATCC 25922; [3]) | MIC (P. aeruginosa PAO1; [4]) | MIC (K. pneumoniae SI-117) | MIC (E. coli 901C) | MIC (P. aeruginosa ATCC 35151) | MIC (K. pneumoniae UMM) | MIC (E. coli AG100A) | MIC [1] | MIC (E. coli D22) | MIC (E. coli AG100) | EC50 (E. coli PBP3) | MIC (A. baumannii ATCC 19606; ATCC19606, read-out: MIC A. baumannii ATCC 19606) | MIC (E. coli ATCC 25922; ATCC25922, read-out: MIC E. coli 25922) | MIC (P. aeruginosa PAO1; PAO1, read-out: MIC P. aeruginosa PAO1) | EC50 (E. coli PBP3; [5]) |
| --- | --- | --- | --- | --- | --- | --- | --- | --- | --- | --- | --- | --- | --- | --- | --- | --- | --- |
| CCN1CCN(C(=O)NC(C(=O)N[C@H]2Cc3ccc(F)c(C(=O)O)c3OB2O)c2ccc(O)cn2)C(=O)C1=O (stereo partly drawn) [Example 128, (3R)-3-(2-(4-ethyl-2,3-dioxopiperazine-1-carboxamido)-2-(5-hydroxypyridin-2-yl)acetamido)-7-fluoro-2-hydroxy-3,4-dihydro-2H-benzo[e][1,2]oxaborinine-8-carboxylic acid] | > 128 µg/mL | 32 to 64 µg/mL | 32 to 64 µg/mL | > 128 µg/mL | 8 to 16 µg/mL | 0.5 to 1 µg/mL | 0.5 to 1 µg/mL | 8 to 16 µg/mL | 2 to 4 µg/mL | 8 to 16 µg/mL | 2 to 4 µg/mL | 8 to 16 µg/mL | 30 to 500 µM | – | – | – | – |
| CCN1CCN(C(=O)N[C@@H](C(=O)N[C@H]2Cc3cccc(C(=O)O)c3OB2O)c2ccc(S(N)(=O)=O)c(OC)c2)C(=O)C1=O [Example 169, (R)-3-((R)-2-(4-ethyl-2,3-dioxopiperazine-1-carboxamido)-2-(3-methoxy-4-sulfamoylphenyl)acetamido)-2-hydroxy-3,4-dihydro-2H-benzo[e][1,2]oxaborinine-8-carboxylic acid] | > 128 µg/mL | > 128 µg/mL | 32 to 64 µg/mL | > 128 µg/mL | > 128 µg/mL | < 0.25 µg/mL | 0.5 to 1 µg/mL | > 128 µg/mL | 8 to 16 µg/mL | 8 to 16 µg/mL | 2 to 4 µg/mL | 32 to 64 µg/mL | 30 to 500 µM | – | – | – | – |
| NS(=O)(=O)c1ccc([C@@H](NC(=O)N2CCN(CCBr)C(=O)C2=O)C(=O)N[C@H]2Cc3cccc(C(=O)O)c3OB2O)cc1O [Example 172, (R)-3-((R)-2-(4-(2-bromoethyl)-2,3-dioxopiperazine-1-carboxamido)-2-(3-hydroxy-4-sulfamoylphenyl)acetamido)-2-hydroxy-3,4-dihydro-2H-benzo[e][1,2]oxaborinine-8-carboxylic acid] | – | > 128 µg/mL | – | – | > 128 µg/mL | 0.5 to 1 µg/mL | < 0.25 µg/mL | 32 to 64 µg/mL | 8 to 16 µg/mL | 2 to 4 µg/mL | 8 to 16 µg/mL | 32 to 64 µg/mL | – | > 128 µg/mL | 32 to 64 µg/mL | > 128 µg/mL | < 30 µM |
| CCN1CCN(C(=O)NC(C(=O)N[C@H]2Cc3c(F)cc(F)c(C(=O)O)c3OB2O)c2ccc(O)c(O)c2Cl)C(=O)C1=O (stereo partly drawn) [Example 185, (3R)-3-(2-(2-chloro-3,4-dihydroxyphenyl)-2-(4-ethyl-2,3-dioxopiperazine-1-carboxamido)acetamido)-5,7-difluoro-2-hydroxy-3,4-dihydro-2H-benzo[e][1,2]oxaborinine-8-carboxylic acid] | > 128 µg/mL | 0.5 to 1 µg/mL | 8 to 16 µg/mL | > 128 µg/mL | 2 to 4 µg/mL | 0.5 to 1 µg/mL | < 0.25 µg/mL | 2 to 4 µg/mL | 2 to 4 µg/mL | 0.5 to 1 µg/mL | 2 to 4 µg/mL | 2 to 4 µg/mL | 30 to 500 µM | – | – | – | – |
| CCN1CCN(C(=O)NC(C(=O)N[C@H]2Cc3cccc(C(=O)O)c3OB2O)c2ccc(S(N)(=O)=O)cc2F)C(=O)C1=O (stereo partly drawn) [Example 203, (3R)-3-(2-(4-ethyl-2,3-dioxopiperazine-1-carboxamido)-2-(2-fluoro-4-sulfamoylphenyl)acetamido)-2-hydroxy-3,4-dihydro-2H-benzo[e][1,2]oxaborinine-8-carboxylic acid] | > 128 µg/mL | > 128 µg/mL | 32 to 64 µg/mL | > 128 µg/mL | > 128 µg/mL | < 0.25 µg/mL | 0.5 to 1 µg/mL | 32 to 64 µg/mL | 2 to 4 µg/mL | 8 to 16 µg/mL | 2 to 4 µg/mL | 32 to 64 µg/mL | – | – | – | – | < 30 µM |
| O=C(O)c1cccc2c1OB(O)[C@@H](NC(=O)C(NC(=O)N1C[C@@H]3CCCN3C(=O)C1=O)c1ccc(O)c(O)c1Cl)C2 (stereo partly drawn) [Example 222, (3R)-3-(2-(2-chloro-3,4-dihydroxyphenyl)-2-((S)-3,4-dioxooctahydropyrrolo[1,2-a]pyrazine-2-carboxamido)acetamido)-2-hydroxy-3,4-dihydro-2H-benzo[e][1,2]oxaborinine-8-carboxylic acid] | 32 to 64 µg/mL | > 128 µg/mL | > 128 µg/mL | 8 to 16 µg/mL | > 128 µg/mL | 32 to 64 µg/mL | < 0.25 µg/mL | 32 to 64 µg/mL | 32 to 64 µg/mL | < 0.25 µg/mL | > 128 µg/mL | 32 to 64 µg/mL | 30 to 500 µM | – | – | – | – |
| NCCN1CCN(C(=O)N[C@H](C(=O)N[C@H]2Cc3ccc(F)c(C(=O)O)c3OB2O)c2ncc(O)cc2F)C(=O)C1=O [Example 231, (R)-3-((S)-2-(4-(2-aminoethyl)-2,3-dioxopiperazine-1-carboxamido)-2-(3-fluoro-5-hydroxypyridin-2-yl)acetamido)-7-fluoro-2-hydroxy-3,4-dihydro-2H-benzo[e][1,2]oxaborinine-8-carboxylic acid] | > 128 µg/mL | 32 to 64 µg/mL | 32 to 64 µg/mL | > 128 µg/mL | 32 to 64 µg/mL | 2 to 4 µg/mL | 0.5 to 1 µg/mL | 32 to 64 µg/mL | 8 to 16 µg/mL | 8 to 16 µg/mL | 8 to 16 µg/mL | 32 to 64 µg/mL | 30 to 500 µM | – | – | – | – |
| O=C(O)c1cccc2c1OB(O)[C@@H](NC(=O)C(NC(=O)N1C[C@H]3CCCN3C(=O)C1=O)c1ccc(O)c(O)c1Cl)C2 (stereo partly drawn) [Example 232, (3R)-3-(2-(2-chloro-3,4-dihydroxyphenyl)-2-((R)-3,4-dioxooctahydropyrrolo[1,2-a]pyrazine-2-carboxamido)acetamido)-2-hydroxy-3,4-dihydro-2H-benzo[e][1,2]oxaborinine-8-carboxylic acid] | > 128 µg/mL | 8 to 16 µg/mL | > 128 µg/mL | 32 to 64 µg/mL | 32 to 64 µg/mL | 8 to 16 µg/mL | < 0.25 µg/mL | 32 to 64 µg/mL | 8 to 16 µg/mL | < 0.25 µg/mL | 8 to 16 µg/mL | 8 to 16 µg/mL | 30 to 500 µM | – | – | – | – |
